{"source": "patent US20240172757A1", "about": "“METHOD OF […] A […] CROP” (priority 2021, published 2024)", "key": {"soybean plant crop [1]": {"test_system": "soybean plant crop", "assay": "Field test runs: acceleration of senescence/maturation and time to harvest of soybean crop after spraying at a reproductive growth stage", "type": "in vivo", "text": "The solution of 2-chloroethylphosphonic acid may be prepared by mixing together 2-chloroethylphosphonic acid (known as ethephon in liquid form and obtainable from a number of sources) with a water solution or a liquid medium that is non-toxic to the particular legume desired. Most commercial sprayers are suitable for preparation and/or application of the solution described herein. To prepare the mixture, during test runs, a tank comprising a capacity of 600 gallons and an agitator was used. Continuous agitation of the mixture during preparation seems to provide best results.\nIn some embodiments, the 2-chloroethylphosphonic acid solution may comprise a water-soluble urea comprising approximately 46% nitrogen. A dry form of nitrogen may be part of the water solution or it may be part of the 2-chloroethylphosphonic acid solution with suitable mixing. Mixing is performed continuously in certain embodiments. During some test runs, approximately 4 pounds of urea per acre was added to about 10 gallons (83.4 pounds) of water per acre, followed by approximately 1.5 pounds of 2-chloroethylphosphonic acid per acre. In some embodiments, the 2-chloroethylphosphonic acid may also comprise a spreader-sticker. The spreader-sticker may be added, for example, at a rate of 2 ounces (0.125 pounds) per acre and may be silicone-based. A suitable silicone-based spreader-sticker, for example, is Kinetic by Helena. Other non-silicone-based sticker-spreaders may also be used.\nApplication of the 2-chloroethylphosphonic acid solution should be performed when the leguminous plant crop comprises at least 50% of the planted crops in the field at a seed growth stage. In some embodiments, the leguminous plant may be at an R5 growth stage when application of the solution described herein is performed. During R5, a fully developed seed pod may comprise, for example, a match-head sized seed in the pod. In some embodiments, the leguminous plant may be at growth stage R5.5, or between R5 and R6 for application. In some embodiments, application is performed when at least 50% of the planted leguminous plant crop is at an R6 reproductive growth stage, as described above. For example, R6 may be visually characterized or identified when at least 50% of the leguminous plant crop comprises at least one seed or “green bean” (in a top pod of the plant) comprising a width equal to its pod cavity. In some embodiments, the leguminous plant may be at growth stage R6.5, or at or between R6 and R7. During some test runs, senescence was achieved within 5 days after application of the solution described herein, with successful harvesting of quality crop. By way of example, prior to application, the physiological stage of the leguminous plant may be determined by inspecting the terminal (or last growing point at the top) end of the leguminous plant crop for a seed pod. Triggering maturation at the R5 growth stage may produce smaller seeds. For commercial production, triggering at R6 may be most successful to obtain more seed at a greater weight.\nApplication of the solution described herein may perform best at temperatures below 98° F. In some embodiments, application of the solution is performed at a temperature below about 90° F. Successful test runs, by way of example, described below were performed at 88° F.\nDuring trial runs, soybean plant crops were planted on plot sizes ranging from 25-150 acres. Soybean plant crops were planted on soil used for rotational crops including, for example, grass crop, corn crop, or grain crop. Crops were seeded approximately 1-1.5 inches deep with a twin line planter. No other pretreatments were performed on the soil during test runs. Ground application was performed on raised beds using a flow jet capable of delivering a minimum of 10-20 gallons per acre. Raised beds were used during some test runs. Furrow irrigation was used to water the soybean plant crop, applying water to the top end of each furrow. […]"}, "soybean plant crop [2]": {"test_system": "soybean plant crop", "assay": "Composition, yield and seed quality analysis of harvested soybeans after spraying at R6", "type": "in vivo", "method": "During trial applications of the solutions described herein, composition, yield and seed quality was analyzed. It was discovered that even under challenges such as hotter than normal temperatures and drought conditions, the solutions described herein allow for manipulation of the seasons for advantageous harvesting of high quality soybeans. Soybean crop (variety “Linda,” a group 5.6 determinate soybean) was planted in 8-24 row strips following a fall corn crop. Herbicide was applied at 3 pints/acre and crop was fertilized with 20 gallons of 32-0-0 per acre, followed by irrigation as needed. Soil maps indicated two different soil types (Harlingen clay and Olmito clay) in the field that bisected the field, with the second replication having slightly less Olmito clay in the treated area. As they are both components of the other, the field was consistent to visual observation. […] The growth stage of the beans at this point is still very rapid but the dry weight and nutrient accumulation begins to slow in the whole plant by R6.5 which is just 7-10 days later in many cases. Another indicator of the R6 stage is visual signs of senescence in the older leaves of the plants.\nSprayer comprising the 2-chloroethylphosphonic acid solution was prepared and applied as described above at the following rates of Table. 1. Weather conditions at the time of spraying can be found in Table 2.\nThe sprayed crops were monitored daily to observe phenotypic changes which included leaf color, leaf drop, pod desiccation, and any visual between treatments. After two days post-spraying, photographs were taken to show the changes in color due to senescense taking place.\nHarvest was slightly delayed (about 3 days) due to unavailability of the combine, however, even with this delay, harvested crops were sent for composition and seed quality parameters. The actual harvest during these test runs was well below a soybean moisture content of a market standard 13%.\nThe 0.75 pounds of the 2-chloroethylphosphonic acid solution per acre rate was highest in crude fat, crude protein, digestible energy and total digestible nutrients (TDN) while being lowest in crude fiber. […] FIGS. 1 through 4 illustrate major nutritional components affected by treatment rate, where the term “a.i.” is meant to refer to the 2-chloroethylphosphonic acid solution described above. FIG. 1 is a graph of crude protein affected by treatment rate of 2-chloroethylphosphonic acid solution according to an embodiment. FIG. 2 is a graph of crude fat affected by treatment rate of 2-chloroethylphosphonic acid solution according to an embodiment. FIG. 3 is a graph of crude fiber affected by treatment rate of 2-chloroethylphosphonic acid solution according to an embodiment. FIG. 4 is a graph of total digestible nutrients affected by treatment rate of 2-chloroethylphosphonic acid solution according to an embodiment."}}}
{"molecule": "O=P(O)(O)CCCl", "note": "[2-chloroethylphosphonic acid]", "values": [{"measurement": "acceleration of maturation in soybean plants", "setting": "soybean plant crop [1]; about 0.375 pounds per acre at the R-6 stage", "value": "significant acceleration of maturation"}, {"measurement": "accelerated maturation of a soybean plant", "setting": "soybean plant crop [1]; about 0.75 pounds per acre at the R-6 reproductive growth stage", "value": "Accelerated maturation"}, {"measurement": "harvesting stage reached sooner than without spraying", "setting": "soybean plant crop [1]; following application at a reproductive growth stage", "value": "10 to 14", "unit": "days"}, {"measurement": "maturation achieved faster than when not treated", "setting": "soybean plant crop [1]; in some cases, high temperature and high humidity environments", "value": "up to 40 days"}, {"measurement": "days shaved off waiting times", "setting": "soybean plant crop [1]; in some cases, versus typical minimum 39-day period", "value": "about 30 days"}, {"measurement": "time to senescence after application", "setting": "soybean plant crop [1]; some test runs", "value": "≤ 5", "unit": "days"}, {"measurement": "germination rate", "setting": "soybean plant crop [1]; trial runs, 25-150 acre plots", "value": "≥ 90", "unit": "%"}, {"measurement": "total digestible nutrients (TDN) (rank among treatments)", "setting": "soybean plant crop [2]; 0.375 pounds per acre, R6", "value": "Ranked behind that in TDN"}, {"measurement": "crude fat (rank among treatments)", "setting": "soybean plant crop [2]; 0.75 pounds per acre, R6", "value": "highest"}, {"measurement": "crude fiber (rank among treatments)", "setting": "soybean plant crop [2]; 0.75 pounds per acre, R6", "value": "lowest"}, {"measurement": "crude protein (rank among treatments)", "setting": "soybean plant crop [2]; 0.75 pounds per acre, R6", "value": "highest"}, {"measurement": "digestible energy (rank among treatments)", "setting": "soybean plant crop [2]; 0.75 pounds per acre, R6", "value": "highest"}, {"measurement": "total digestible nutrients (TDN) (rank among treatments)", "setting": "soybean plant crop [2]; 0.75 pounds per acre, R6", "value": "highest"}, {"measurement": "overall nutrients versus untreated", "setting": "soybean plant crop [2]; all three treatments (0.375, 0.75, 1.125 pounds per acre)", "value": "improved overall nutrients"}]}
